Key:
thrombin = target: T1, thrombin (Homo sapiens, UniProt P00734); test: Measurement of the enzymic activity of thrombin in solution (amperometric hydrolysis of substrate); type: biochemical; details: substrate c = 0.5 mmol, 1 NIH-U of thrombin, 400 mV, HEPES 50 mM pH 7.4, KCl 0.1 M, 25° C.
T1 construct: purchased Diagnotec Liestal 100-500
Description: 1) A Tacusell PGP201 potentiostat, software VM1, which maintains a constant potential difference between the measuring electrode and reference electrode, is used. The measuring cell used is a glass beaker with a capacity of 25 ml or 1 ml, which can receive the 3 electrodes.
2) A platinum wire with a surface area of 34 mm^2 or 3 mm^2 is used as measuring electrode.
3) A calomel electrode (SCE) is used as reference electrode at which the potentials are measured.
4) The auxiliary electrode consists of platinum wire and serves to ensure passage of the current.
5) The measured solution is stirred by a magnetic stirrer for homogenization.
Thrombin concentration: 0.5, 1.0, 2 NIH-U/ml
Buffer: HEPES buffer, 50 mM, pH 7.4, KCl, 0.1 M
For example a 0.5 mM solution of the substrate Tos-Gly-Pro-Arg 3-chloro-4-hydroxyanilide×AcOH in HEPES buffer is prepared, as is a stock solution of thrombin with 100 NIH-U/1 ml in distilled water. 1 ml of substrate solution (c=0.5 mmol) is introduced into a 1 ml measuring cell provided with 3 electrodes of the Tacusell PGP201 potentiostat, software VM1. A cycle is allowed to run potentiodynamically from −30 to 500 mV to record the zero value (10 min). For the measurement, 10 µl of thrombin solution (final concentration 1.0 NIH-U/ml) is placed in the measuring cell, […], after mixing for 30 sec, the current is recorded potentiostatically over a time of 10 min. The measurements are carried out as duplicate determination.
FIGS. 5, 6 and 7 (μA cm^2/min, T=0-5 min, at 400 mV) show the linear cleavage rates by means of 3 substrates with different electroactive groups at a thrombin concentration of 1 NIH-U and substrate concentration c=0.5 mmol: […]

[1] = Cyclic voltammogram of the substrate (electroactivity); type: physicochemical; details: c=0.5 mM in HEPES buffer, pH=7.4, 0.1 M KCl; -30 to 600 mV; 1 ml cell, electrode 3 mm^2
Source text: […] A measurement cycle can take place when the basic current affords sufficient accuracy. The basic current is subtracted from the measurement during the hydrolysis of a substrate or the recording of a profile of an electroactive compound.
2) Evaluation of the results: the currents recorded in the linearity range are, after subtraction of the basic current at the relevant potential, proportional to the concentration of the electroactive species during the hydrolysis. The liberated electroactive species, which is cleaved off by the substrate, is likewise proportional to the enzyme concentration employed.
3) A platinum electrode is used to record the cyclic voltammograms at concentrations of 0.25 mmol, 0.5 mmol and 1.0 mmol. HEPES, 50 mmol at pH 7.4, is used as buffer. FIGS. 1 and 2 show typical cyclic reversible plots for 4-amino-2-chlorophenol and 5-amino-8-hydroxyquinoline: recorded from −30 to 600 mV at 500 mV/min. These amperogenic substances preferably show a linear dependence of the current strength on the concentration at low potential in the region of 300 mV, with a high current strength. The system is in equilibrium in this case. A higher voltage of >400 mV is undesired because of interference with possible constituents in the blood, for example paracetamol. […]

Row | Substance | Standardization: current resulting from hydrolysis of the substrate with thrombin, per cm^2 of electrode surface area in one minute (thrombin) | Electroactivity of the uncleaved substrate at 400 mV [1]
1 | H-(D)-Chg-Gly-Arg 3-chloro-4-hydroxyanilide×2 TFA | 3 μA/cm^2 of electrode | –
2 | Tos-Gly-Pro-Arg 3-chloro-4-hydroxyanilide×AcOH | 2 μA/cm^2 of electrode | no electroactivity
3 | Z-gly-pro-arg 2-chloro-4-hydroxyanilide×HCl | 0.5 μA/cm^2 of electrode | –
